ChEMBL document CHEMBL4507329, “Data for DCP probe BTZO-1” (2021)

What was measured:
[1] = biological target: Activin receptor type-1B (Homo sapiens) (UniProt P36896); conditions: Compound concentration 1000.0 nM
[2] = biological target: Atypical kinase COQ8A, mitochondrial (Homo sapiens) (UniProt Q8NI60); conditions: Compound concentration 1000.0 nM
[3] = biological target: BMP-2-inducible protein kinase (Homo sapiens) (UniProt Q9NSY1); conditions: Compound concentration 1000.0 nM
[4] = biological target: Tyrosine-protein kinase Blk (Homo sapiens) (UniProt P51451); conditions: Compound concentration 1000.0 nM
[5] = biological target: Serine/threonine-protein kinase B-raf (Homo sapiens) (UniProt P15056); conditions: Compound concentration 1000.0 nM
Sequence of Serine/threonine-protein kinase B-raf (Homo sapiens) (P15056 whole entry): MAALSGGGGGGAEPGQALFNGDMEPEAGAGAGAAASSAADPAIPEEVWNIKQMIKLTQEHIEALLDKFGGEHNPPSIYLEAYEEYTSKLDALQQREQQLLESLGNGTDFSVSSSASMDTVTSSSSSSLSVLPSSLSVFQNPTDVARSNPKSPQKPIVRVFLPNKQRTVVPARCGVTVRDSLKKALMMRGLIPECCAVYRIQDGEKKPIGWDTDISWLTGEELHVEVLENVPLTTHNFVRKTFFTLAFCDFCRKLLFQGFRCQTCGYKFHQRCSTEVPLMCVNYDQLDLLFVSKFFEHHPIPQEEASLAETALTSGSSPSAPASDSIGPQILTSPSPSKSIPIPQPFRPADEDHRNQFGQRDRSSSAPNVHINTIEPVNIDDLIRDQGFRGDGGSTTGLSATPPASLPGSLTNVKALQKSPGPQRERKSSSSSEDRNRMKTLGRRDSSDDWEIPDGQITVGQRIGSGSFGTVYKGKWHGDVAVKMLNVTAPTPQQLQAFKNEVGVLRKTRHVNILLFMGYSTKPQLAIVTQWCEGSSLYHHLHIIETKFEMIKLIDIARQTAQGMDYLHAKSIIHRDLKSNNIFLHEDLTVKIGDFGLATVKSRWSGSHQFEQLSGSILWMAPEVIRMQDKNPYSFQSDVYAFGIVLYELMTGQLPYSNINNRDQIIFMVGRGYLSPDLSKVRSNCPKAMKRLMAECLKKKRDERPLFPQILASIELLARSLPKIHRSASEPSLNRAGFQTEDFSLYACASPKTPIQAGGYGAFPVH

[6] = tested on: Serine/threonine-protein kinase B-raf (Homo sapiens), P15056 [V600E]; conditions: Compound concentration 1000.0 nM
[7] = biological target: Serine/threonine-protein kinase BRSK2 (Homo sapiens) (UniProt Q8IWQ3); conditions: Compound concentration 1000.0 nM
[8] = biological target: Calcium/calmodulin-dependent protein kinase type II subunit gamma (Homo sapiens) (UniProt Q13555); conditions: Compound concentration 1000.0 nM
[9] = biological target: Calcium/calmodulin-dependent protein kinase kinase 2 (Homo sapiens) (UniProt Q96RR4); conditions: Compound concentration 1000.0 nM
[10] = biological target: Cyclin-dependent kinase 4 (Homo sapiens) (UniProt P11802); conditions: Compound concentration 1000.0 nM
[11] = biological target: Cyclin-dependent kinase-like 5 (Homo sapiens) (UniProt O76039); conditions: Compound concentration 1000.0 nM
[12] = biological target: Dual specificity protein kinase CLK4 (Homo sapiens) (UniProt Q9HAZ1); conditions: Compound concentration 1000.0 nM
Sequence of Dual specificity protein kinase CLK4 (Homo sapiens) (Q9HAZ1 whole entry, looked up): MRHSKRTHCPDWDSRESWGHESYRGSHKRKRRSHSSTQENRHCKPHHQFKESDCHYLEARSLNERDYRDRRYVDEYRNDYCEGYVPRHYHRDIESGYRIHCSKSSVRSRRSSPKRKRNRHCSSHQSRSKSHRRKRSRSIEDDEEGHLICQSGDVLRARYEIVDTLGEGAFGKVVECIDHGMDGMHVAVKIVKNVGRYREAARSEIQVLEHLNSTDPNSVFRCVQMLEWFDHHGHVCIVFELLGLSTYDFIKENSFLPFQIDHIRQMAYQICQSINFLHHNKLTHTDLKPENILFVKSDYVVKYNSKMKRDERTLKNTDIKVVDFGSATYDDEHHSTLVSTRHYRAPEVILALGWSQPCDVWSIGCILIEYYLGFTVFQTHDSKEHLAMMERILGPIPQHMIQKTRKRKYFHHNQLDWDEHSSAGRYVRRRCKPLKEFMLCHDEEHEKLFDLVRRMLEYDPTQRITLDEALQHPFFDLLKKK

[13] = biological target: Tyrosine-protein kinase CSK (Homo sapiens) (UniProt P41240); conditions: Compound concentration 1000.0 nM
[14] = biological target: Discoidin domain-containing receptor 2 (Homo sapiens) (UniProt Q16832); conditions: Compound concentration 1000.0 nM
Sequence of Discoidin domain-containing receptor 2 (Homo sapiens) (Q16832 whole entry, the tested form may be a part): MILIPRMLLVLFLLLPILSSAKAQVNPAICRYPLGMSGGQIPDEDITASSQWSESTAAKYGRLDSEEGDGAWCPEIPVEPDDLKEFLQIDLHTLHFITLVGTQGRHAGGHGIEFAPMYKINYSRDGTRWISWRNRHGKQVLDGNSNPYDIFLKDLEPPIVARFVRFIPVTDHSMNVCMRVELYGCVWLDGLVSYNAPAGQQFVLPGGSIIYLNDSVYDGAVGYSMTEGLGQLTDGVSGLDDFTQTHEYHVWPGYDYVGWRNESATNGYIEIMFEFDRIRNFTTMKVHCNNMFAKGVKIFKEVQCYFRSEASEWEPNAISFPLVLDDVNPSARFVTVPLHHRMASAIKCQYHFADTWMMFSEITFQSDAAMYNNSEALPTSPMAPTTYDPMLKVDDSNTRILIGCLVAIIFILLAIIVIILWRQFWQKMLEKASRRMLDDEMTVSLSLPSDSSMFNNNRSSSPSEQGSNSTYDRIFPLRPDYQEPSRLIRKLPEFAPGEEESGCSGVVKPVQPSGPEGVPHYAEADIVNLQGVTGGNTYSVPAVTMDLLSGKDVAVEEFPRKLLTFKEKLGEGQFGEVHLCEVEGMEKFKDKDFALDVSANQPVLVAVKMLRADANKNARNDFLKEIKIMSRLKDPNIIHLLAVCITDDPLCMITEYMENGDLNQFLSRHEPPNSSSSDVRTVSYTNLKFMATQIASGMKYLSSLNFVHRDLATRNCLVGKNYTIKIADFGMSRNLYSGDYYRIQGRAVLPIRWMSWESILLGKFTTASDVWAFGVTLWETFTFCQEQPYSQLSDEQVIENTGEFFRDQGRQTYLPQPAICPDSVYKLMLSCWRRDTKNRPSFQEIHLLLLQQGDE

[15] = biological target: Myotonin-protein kinase (Homo sapiens) (UniProt Q09013); conditions: Compound concentration 1000.0 nM
[16] = biological target: Dual specificity tyrosine-phosphorylation-regulated kinase 1A (Homo sapiens) (UniProt Q13627); conditions: Compound concentration 1000.0 nM
[17] = tested on: Epidermal growth factor receptor (Homo sapiens), P00533 [L861Q]; conditions: Compound concentration 1000.0 nM
[18] = biological target: Mitogen-activated protein kinase 3 (Homo sapiens) (UniProt P27361); conditions: Compound concentration 1000.0 nM
[19] = tested on: Receptor-type tyrosine-protein kinase FLT3 (Homo sapiens), P36888 [UNDEFINED MUTATION]; conditions: Compound concentration 1000.0 nM
[20] = tested on: Receptor-type tyrosine-protein kinase FLT3 (Homo sapiens), P36888 [R834Q]; conditions: Compound concentration 1000.0 nM
[21] = tested on: eIF-2-alpha kinase GCN2 (Homo sapiens), Q9P2K8 [S808G]; conditions: Compound concentration 1000.0 nM
[22] = biological target: Inhibitor of nuclear factor kappa-B kinase subunit alpha (Homo sapiens) (UniProt O15111); conditions: Compound concentration 1000.0 nM
[23] = biological target: Mast/stem cell growth factor receptor Kit (Homo sapiens) (UniProt P10721); conditions: Compound concentration 1000.0 nM
[24] = biological target: Serine/threonine-protein kinase LATS1 (Homo sapiens) (UniProt O95835); conditions: Compound concentration 1000.0 nM
[25] = biological target: Mitogen-activated protein kinase kinase kinase kinase 3 (Homo sapiens) (UniProt Q8IVH8); conditions: Compound concentration 1000.0 nM
[26] = biological target: Dual specificity mitogen-activated protein kinase kinase 2 (Homo sapiens) (UniProt P36507); conditions: Compound concentration 1000.0 nM
Sequence of Dual specificity mitogen-activated protein kinase kinase 2 (Homo sapiens) (P36507 whole entry): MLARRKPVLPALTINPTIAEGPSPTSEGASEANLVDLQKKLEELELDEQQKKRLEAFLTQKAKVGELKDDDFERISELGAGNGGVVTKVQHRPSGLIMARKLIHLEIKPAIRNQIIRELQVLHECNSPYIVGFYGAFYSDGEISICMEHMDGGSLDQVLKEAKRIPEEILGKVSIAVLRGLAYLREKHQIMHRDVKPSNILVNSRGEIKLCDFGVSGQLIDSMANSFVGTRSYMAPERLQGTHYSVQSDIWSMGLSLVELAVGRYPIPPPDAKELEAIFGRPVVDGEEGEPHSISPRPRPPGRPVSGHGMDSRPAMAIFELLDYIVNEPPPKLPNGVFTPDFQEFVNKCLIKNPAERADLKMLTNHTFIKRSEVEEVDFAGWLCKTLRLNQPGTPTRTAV

[27] = biological target: Mitogen-activated protein kinase kinase kinase 9 (Homo sapiens) (UniProt P80192); conditions: Compound concentration 1000.0 nM
[28] = biological target: Serine/threonine-protein kinase MRCK alpha (Homo sapiens) (UniProt Q5VT25); conditions: Compound concentration 1000.0 nM
Sequence of Serine/threonine-protein kinase MRCK alpha (Homo sapiens) (Q5VT25 whole entry): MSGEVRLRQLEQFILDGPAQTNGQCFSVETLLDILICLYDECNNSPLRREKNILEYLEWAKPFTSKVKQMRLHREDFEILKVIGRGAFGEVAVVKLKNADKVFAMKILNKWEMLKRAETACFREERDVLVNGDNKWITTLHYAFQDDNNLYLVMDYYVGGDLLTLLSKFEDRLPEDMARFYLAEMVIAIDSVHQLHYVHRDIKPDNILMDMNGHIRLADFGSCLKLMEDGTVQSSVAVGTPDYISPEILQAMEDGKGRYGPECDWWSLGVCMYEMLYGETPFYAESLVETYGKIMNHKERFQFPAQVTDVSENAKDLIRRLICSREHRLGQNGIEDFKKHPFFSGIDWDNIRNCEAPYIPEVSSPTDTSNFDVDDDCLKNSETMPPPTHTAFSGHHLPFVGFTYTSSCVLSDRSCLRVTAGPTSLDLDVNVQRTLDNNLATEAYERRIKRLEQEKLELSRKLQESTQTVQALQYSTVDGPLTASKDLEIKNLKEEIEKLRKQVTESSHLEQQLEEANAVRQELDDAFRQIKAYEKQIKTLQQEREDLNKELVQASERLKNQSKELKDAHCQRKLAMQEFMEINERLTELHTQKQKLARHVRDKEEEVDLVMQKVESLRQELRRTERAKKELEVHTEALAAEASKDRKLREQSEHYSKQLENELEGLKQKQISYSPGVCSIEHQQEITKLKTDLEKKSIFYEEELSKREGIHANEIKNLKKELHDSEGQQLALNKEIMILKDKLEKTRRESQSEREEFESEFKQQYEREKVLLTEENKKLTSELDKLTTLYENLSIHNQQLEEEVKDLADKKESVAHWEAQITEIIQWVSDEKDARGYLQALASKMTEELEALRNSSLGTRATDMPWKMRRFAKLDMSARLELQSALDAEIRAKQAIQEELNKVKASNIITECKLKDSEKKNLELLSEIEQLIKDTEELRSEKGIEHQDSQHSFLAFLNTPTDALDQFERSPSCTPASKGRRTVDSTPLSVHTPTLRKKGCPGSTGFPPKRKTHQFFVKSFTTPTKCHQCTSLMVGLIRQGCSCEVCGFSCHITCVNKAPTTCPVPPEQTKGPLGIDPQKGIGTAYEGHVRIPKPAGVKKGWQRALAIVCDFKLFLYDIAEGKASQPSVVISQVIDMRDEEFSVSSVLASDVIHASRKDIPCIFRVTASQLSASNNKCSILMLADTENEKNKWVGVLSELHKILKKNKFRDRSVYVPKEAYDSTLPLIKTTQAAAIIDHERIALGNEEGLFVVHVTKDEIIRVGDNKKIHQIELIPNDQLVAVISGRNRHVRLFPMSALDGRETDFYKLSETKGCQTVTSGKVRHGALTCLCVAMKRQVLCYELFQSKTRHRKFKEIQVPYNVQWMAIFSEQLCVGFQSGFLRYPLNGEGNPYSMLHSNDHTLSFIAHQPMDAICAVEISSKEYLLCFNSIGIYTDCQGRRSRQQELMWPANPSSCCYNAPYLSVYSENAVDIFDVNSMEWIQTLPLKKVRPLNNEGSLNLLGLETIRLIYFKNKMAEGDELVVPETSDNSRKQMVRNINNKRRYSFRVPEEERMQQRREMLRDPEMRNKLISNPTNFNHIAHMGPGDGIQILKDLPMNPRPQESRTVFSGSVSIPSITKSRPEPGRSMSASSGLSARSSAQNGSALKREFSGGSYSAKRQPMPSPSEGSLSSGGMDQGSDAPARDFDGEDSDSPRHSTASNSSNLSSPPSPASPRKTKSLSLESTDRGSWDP

[29] = biological target: Serine/threonine-protein kinase 3 (Homo sapiens) (UniProt Q13188); conditions: Compound concentration 1000.0 nM
[30] = biological target: Serine/threonine-protein kinase Nek9 (Homo sapiens) (UniProt Q8TD19); conditions: Compound concentration 1000.0 nM
[31] = biological target: Cyclin-dependent kinase 18 (Homo sapiens) (UniProt Q07002); conditions: Compound concentration 1000.0 nM
[32] = biological target: Cyclin-dependent kinase 2 homolog (Plasmodium falciparum (isolate 3D7)) (UniProt P61075); conditions: Compound concentration 1000.0 nM
Sequence of Cyclin-dependent kinase 2 homolog (Plasmodium falciparum (isolate 3D7)) (P61075 whole entry, canonical isoform): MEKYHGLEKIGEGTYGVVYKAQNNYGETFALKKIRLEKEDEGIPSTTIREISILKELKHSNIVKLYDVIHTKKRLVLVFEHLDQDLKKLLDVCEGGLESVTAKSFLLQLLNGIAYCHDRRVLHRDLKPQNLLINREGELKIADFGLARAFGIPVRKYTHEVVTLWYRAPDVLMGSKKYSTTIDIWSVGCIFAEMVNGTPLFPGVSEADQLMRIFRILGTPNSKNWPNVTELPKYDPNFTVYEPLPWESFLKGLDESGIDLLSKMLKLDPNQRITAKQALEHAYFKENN

[33] = biological target: Phosphorylase b kinase regulatory subunit alpha, liver isoform (Homo sapiens) (UniProt P46019); conditions: Compound concentration 1000.0 nM
[34] = tested on: Phosphatidylinositol 4,5-bisphosphate 3-kinase catalytic subunit alpha isoform (Homo sapiens), P42336 [H1047Y]; conditions: Compound concentration 1000.0 nM
[35] = tested on: Phosphatidylinositol 4,5-bisphosphate 3-kinase catalytic subunit alpha isoform (Homo sapiens), P42336 [I800L]; conditions: Compound concentration 1000.0 nM
[36] = biological target: Phosphatidylinositol 4,5-bisphosphate 3-kinase catalytic subunit gamma isoform (Homo sapiens) (UniProt P48736); conditions: Compound concentration 1000.0 nM
[37] = biological target: Serine/threonine-protein kinase PLK4 (Homo sapiens) (UniProt O00444); conditions: Compound concentration 1000.0 nM
[38] = biological target: Receptor-interacting serine/threonine-protein kinase 1 (Homo sapiens) (UniProt Q13546); conditions: Compound concentration 1000.0 nM
[39] = biological target: Ribosomal protein S6 kinase alpha-1 (Homo sapiens) (UniProt Q15418); conditions: Compound concentration 1000.0 nM
[40] = biological target: Serine/threonine-protein kinase 35 (Homo sapiens) (UniProt Q8TDR2); conditions: Compound concentration 1000.0 nM
[41] = biological target: Tyrosine-protein kinase TXK (Homo sapiens) (UniProt P42681); conditions: Compound concentration 1000.0 nM
Sequence of Tyrosine-protein kinase TXK (Homo sapiens) (P42681 whole entry): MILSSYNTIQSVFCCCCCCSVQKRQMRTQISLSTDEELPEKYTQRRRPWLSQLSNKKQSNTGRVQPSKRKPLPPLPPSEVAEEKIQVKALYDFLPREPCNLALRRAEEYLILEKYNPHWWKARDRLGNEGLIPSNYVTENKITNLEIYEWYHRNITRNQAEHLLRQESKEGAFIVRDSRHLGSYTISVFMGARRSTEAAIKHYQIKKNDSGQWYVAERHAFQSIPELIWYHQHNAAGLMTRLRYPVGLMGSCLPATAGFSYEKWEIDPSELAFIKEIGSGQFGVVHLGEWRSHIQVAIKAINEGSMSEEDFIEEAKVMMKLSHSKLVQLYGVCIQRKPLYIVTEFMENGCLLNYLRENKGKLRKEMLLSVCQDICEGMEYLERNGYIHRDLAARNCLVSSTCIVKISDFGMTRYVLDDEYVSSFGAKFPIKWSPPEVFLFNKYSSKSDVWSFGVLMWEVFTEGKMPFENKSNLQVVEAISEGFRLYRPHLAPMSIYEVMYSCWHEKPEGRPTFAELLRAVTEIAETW

[42] = biological target: Serine/threonine-protein kinase WNK1 (Homo sapiens) (UniProt Q9H4A3); conditions: Compound concentration 1000.0 nM
[43] = biological target: Tyrosine-protein kinase Yes (Homo sapiens) (UniProt P07947); conditions: Compound concentration 1000.0 nM
[44] = biological target: D(2) dopamine receptor (Homo sapiens) (UniProt P14416); conditions: Compound concentration 10.0 uM

O=c1nc(-c2ccccn2)sc2ccccc12 [BTZO-1]
active: residual activity [21] 47%
inactive: residual activity [1] 100% | residual activity [2] 88% | residual activity [3] 86% | residual activity [4] 88% | residual activity [5] 100% | residual activity [6] 100% | residual activity [7] 100% | residual activity [8] 96% | residual activity [9] 90% | residual activity [10] 100% | residual activity [11] 100% | residual activity [12] 90% | residual activity [13] 100% | residual activity [14] 100% | residual activity [15] 100% | residual activity [16] 91% | residual activity [17] 68% | residual activity [18] 80% | residual activity [19] 100% | residual activity [20] 100% | residual activity [22] 100% | residual activity [23] 97% | residual activity [24] 95% | residual activity [25] 90% | residual activity [26] 89% | residual activity [27] 85% | residual activity [28] 91% | residual activity [29] 94% | residual activity [30] 96% | residual activity [31] 94% | residual activity [32] 100% | residual activity [33] 77% | residual activity [34] 94% | residual activity [35] 84% | residual activity [36] 100% | residual activity [37] 80% | residual activity [38] 83% | residual activity [39] 100% | residual activity [40] 79% | residual activity [41] 81% | residual activity [42] 100% | residual activity [43] 100% | inhibition [44] 22.9%

O=C1NC(c2ccccn2)Sc2ccccc21 (stereo not drawn) [BTZO-4]
inactive: residual activity [1] 99% | residual activity [2] 98% | residual activity [3] 88% | residual activity [4] 77% | residual activity [5] 90% | residual activity [6] 94% | residual activity [7] 100% | residual activity [8] 98% | residual activity [9] 95% | residual activity [10] 93% | residual activity [11] 100% | residual activity [12] 97% | residual activity [13] 100% | residual activity [14] 100% | residual activity [15] 100% | residual activity [16] 100% | residual activity [17] 77% | residual activity [18] 74% | residual activity [19] 100% | residual activity [20] 81% | residual activity [22] 100% | residual activity [23] 88% | residual activity [24] 98% | residual activity [25] 100% | residual activity [26] 75% | residual activity [27] 88% | residual activity [28] 84% | residual activity [29] 100% | residual activity [30] 75% | residual activity [31] 93% | residual activity [32] 100% | residual activity [33] 73% | residual activity [34] 67% | residual activity [35] 80% | residual activity [36] 91% | residual activity [37] 76% | residual activity [38] 81% | residual activity [39] 100% | residual activity [40] 99% | residual activity [41] 100% | residual activity [42] 91% | residual activity [43] 100% | inhibition [44] -3.91%
active: residual activity [21] 42%
